Results on 8 compounds are retold here after patent US20040006127A1, “Activation of the cystic fibrosis transmembrane conductance regulator chloride channel” (priority 2000, published 2004).

The target of assay [1] is T1, wild-type human CFTR (Homo sapiens, UniProt P13569).
T1 construct: expressed in transfected cells
Put plainly: Single-channel recording of CFTR Cl- channels in excised inside-out membrane patches from C127 cells. The assay is classed as biochemical.

For assay [2], the target named is T1, wild-type human CFTR. Put plainly: CFTR Cl- currents in excised inside-out membrane patches from C127 cells (time course, I-V studies). It is filed as biochemical. The settings on record: for concentration that maximally stimulated channel activity: excised membrane patches; for effect on channel activity at positive voltages: phloxine B 40 μM. As to the method:
For electrophysiological experiments, we used mouse mammary epithelial cells (C127 cells) stably expressing wild-type human CFTR or ΔF508, the most common CF-associated mutation (11). C127 cells expressing wild-type CFTR were cultured as previously described (12). C127 cells expressing ΔF508 were cultured at 28° C., to overcome the processing defect of ΔF508 and promote bs delivery to the cell membrane (13). Cells were seeded onto glass coverslips and used within either 48 h (wild-type CFTR) or 1 week (ΔF508).
CFTR Cl^− channels were recorded in excised inside-out membrane patches using an Axopatch 200A patch-clamp amplifier (Axon Instruments Inc., Foster City, USA) and pCLAMP data acquisition and analysis software (version 6.03, Axon Instruments Inc.) as previously described (12,14). The established sign convention was used throughout; currents produced by positive charge moving from intra- to extracellular solutions (anions moving in the opposite direction) are shown as positive currents.
The pipette (extracellular) solution contained (in mM): 140 N-methyl-D-glucamine (NMDG), 140 aspartic acid, 5 CaCl2, 2 MgSO4, and 10 N-tris[hydroxymethyl]methyl-2-aminoethanesulphonic acid (Tes), pH 7.3 with Tris ([Cl^−], 10 mM). The bath (intracellular) solution contained (in mM): 140 NMDG, 3 MgCl2, 1 ethylene glycol-bis(β-aminoethylether)-N,N,N′,N′-tetraacetic acid caesium salt (CsEGTA), and 10 Tes, pH 7.3 with HCl, ([Cl^−], 147 mM; [Ca^2+]free, <10^−8 M). All experiments were conducted at 37° C.
After excision of membrane patches from C127 cells. CFTR Cl^− channels were activated by the addition of the catalytic subunit of protein kinase A (PKA; 75 nM) and ATP (1.0 mM) to the intracellular solution within 5 min of patch excision. […] PKA was maintained in the intracellular solution for the duration of experiments. Voltage was −50 mV. […] The number of channels per patch was determined from the maximum number of simultaneous channel openings observed during the course of an experiment, as previously described (12). […] To investigate whether modulation of CFTR by fluorescein derivatives was voltage dependent, we used a voltage ramp protocol. Macroscopic current-voltage (I-V) relationships were obtained. In the absence and presence of fluorescein derivatives by averaging currents generated by 15-30 ramps of voltage, each of 2 s duration; holding voltage was −50 mV. Basal currents recorded in the absence of PKA and ATP were subtracted from those recorded in the absence and presence of fluorescein derivatives to determine the effect of fluorescein derivatives on CFTR Cl^− currents,
CFTR Cl^− currents were initially recorded on digital audiotape using a digital tape recorder (Biologic Scientific Instruments, model DTR-1204; lntracel Ltd, Royston, UK) at a bandwidth of 10 kHz. On playback, records were filtered with an eight-pole Bessel filter (Frequency Devices, model 902LPF2: Scensys Ltd, Aylesbury, UK) at a corner frequency of 500 Hz and acquired using a Digidata 1200 interface (Axon Instruments Inc.) and pCLAMP at sampling rates of either 2.5 kHz (time course studies) or 5.0 kHz (single-channel studies).
In time course studies, each point is the average current for a 4 s period with data points collected continuously, no data were collected while solutions were changed. Average current (I) for a specific intervention was determined as the average of all the data points collected during the intervention. The relationship between drug concentration and CFTR inhibition was fitted to the Hill equation:
IDrug/IControl=1/{1+([Drug]/Ki)^n}, (1)
where [Drug] is the concentration of drug, IDrug/IControl is the fractional current at the indicated drug concentration relative to that in the same solution in the absence of added drug, Ki is the drug concentration causing half-maximal inhibition, and n is the slope factor (Hill coefficient). Mean data were fitted to a linear form of equation (1) using linear least-squares regression to yield Ki and n values.

Another assay has as its target T2, KATP currents (Homo sapiens, UniProt Q09428+Q14654).
T2 construct: host or cells: pancreatic β-cells
As to conditions: added to the extracellular solution; de Weille et al. (10); cited from earlier work.

Assay [3] addresses T3, endogenous CFTR Cl- channels in Type I MDCK cells (Canis lupus familiaris, UniProt Q5U820).
T3 construct: Type I MDCK cells are kidney epithelial cells that endogenously express the CFTR Cl^− channel; endogenous in cells; host or cells: Type I MDCK cells
Put plainly: cAMP-stimulated iodide efflux from Type I MDCK cells. It is filed as cell-based, canine. The method, then:
For iodide efflux experiments, we used Type I Mardin-Darby canine kidney (MDCK) cells. MDCK cells were cultured in MDCK media (a 1:1 mixture of Dulbecco's Modified Eagle Medium (DMEM) and Ham's F-12 nutrient medium supplemented with 10% fetal bovine serum, 100 U ml^1 penicillin, and […] ml^−streptomycin; all from Life Technologies Ltd, Paisley, UK) at 37° C. in a humidified atmosphere of 5% CO2. Cells were seeded onto 60 mm plastic culture dishes and used 72-96 h later.
Type I MDCK cells (≧90% confluent) were incubated for 1 h in a loading buffer containing (mM): 136 Nal, 3 KNO3, 2 Ca(NO3)2, 11 glucose, and 20 Hepes, adjusted to pH 7.4 with NaOH. […] The efflux buffer was changed at 1 min intervals over the duration of the experiment, which typically lasted 18 min. Four minutes after anion substitution, cells were exposed to agonists for 4 min. The amount of iodide in each 2.5 ml sample of efflux buffer was determined using an iodide-selective electrode (Russell pH Ltd. Auchtermuchty, UK). Cells were loaded and experiments performed at room temperature (23° C.).
Type I MDCK cells are kidney epithelial cells that endogenously express the CFTR Cl^− channel (20).
Nitrate was substituted for iodide in the bathing medium at t=−4 min and iodide efflux was monitored at 1 min intervals, for the duration of the experiment.

The target in the next assay is T4, ΔF508 CFTR (Homo sapiens, UniProt P13569, DEL508-508).
T4 construct: expressed in transfected cells
T4 sequence (P13569 with tags, fused parts or gaps DEL508-508): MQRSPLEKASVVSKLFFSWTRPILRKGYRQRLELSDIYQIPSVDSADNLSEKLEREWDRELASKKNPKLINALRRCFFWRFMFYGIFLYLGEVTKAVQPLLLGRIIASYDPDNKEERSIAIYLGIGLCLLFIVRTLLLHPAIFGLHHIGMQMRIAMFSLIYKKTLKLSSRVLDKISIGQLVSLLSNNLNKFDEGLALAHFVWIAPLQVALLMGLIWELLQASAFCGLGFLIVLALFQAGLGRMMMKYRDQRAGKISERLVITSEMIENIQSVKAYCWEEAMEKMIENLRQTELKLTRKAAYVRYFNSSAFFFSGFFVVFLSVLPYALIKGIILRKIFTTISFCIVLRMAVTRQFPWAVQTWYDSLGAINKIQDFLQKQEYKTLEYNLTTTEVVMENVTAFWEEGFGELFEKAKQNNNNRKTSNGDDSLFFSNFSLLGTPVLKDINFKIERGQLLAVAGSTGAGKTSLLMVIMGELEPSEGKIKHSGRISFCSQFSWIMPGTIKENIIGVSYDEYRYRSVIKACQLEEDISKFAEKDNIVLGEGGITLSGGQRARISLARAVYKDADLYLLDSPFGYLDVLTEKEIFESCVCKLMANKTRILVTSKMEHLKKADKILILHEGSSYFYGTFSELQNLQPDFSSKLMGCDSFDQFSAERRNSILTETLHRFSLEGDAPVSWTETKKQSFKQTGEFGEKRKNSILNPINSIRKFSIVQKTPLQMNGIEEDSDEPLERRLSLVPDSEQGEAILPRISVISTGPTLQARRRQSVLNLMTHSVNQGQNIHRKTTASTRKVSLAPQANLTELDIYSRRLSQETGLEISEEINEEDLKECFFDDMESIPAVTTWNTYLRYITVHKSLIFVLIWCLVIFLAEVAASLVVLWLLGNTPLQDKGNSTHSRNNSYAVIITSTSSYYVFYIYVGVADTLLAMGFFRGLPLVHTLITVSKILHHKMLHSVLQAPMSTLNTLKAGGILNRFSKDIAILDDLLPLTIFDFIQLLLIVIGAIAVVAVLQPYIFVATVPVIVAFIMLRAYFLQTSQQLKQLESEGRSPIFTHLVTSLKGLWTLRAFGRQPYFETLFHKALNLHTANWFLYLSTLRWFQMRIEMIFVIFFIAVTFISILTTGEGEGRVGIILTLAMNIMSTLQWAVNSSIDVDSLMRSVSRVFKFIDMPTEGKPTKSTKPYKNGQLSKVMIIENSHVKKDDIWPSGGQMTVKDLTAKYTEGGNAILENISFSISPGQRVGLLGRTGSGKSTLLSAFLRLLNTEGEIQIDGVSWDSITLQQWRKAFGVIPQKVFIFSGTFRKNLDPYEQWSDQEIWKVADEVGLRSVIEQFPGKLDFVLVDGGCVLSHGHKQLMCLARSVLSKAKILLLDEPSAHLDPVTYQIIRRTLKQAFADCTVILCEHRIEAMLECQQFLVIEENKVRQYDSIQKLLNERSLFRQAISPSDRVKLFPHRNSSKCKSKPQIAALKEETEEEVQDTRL
Put plainly: Single-channel recording of ΔF508 CFTR Cl- channels in excised patches from C127 cells grown at 28° C. The settings on record: 1 μM. It is filed as biochemical.

The target of assay [4] is wild-type CFTR Cl- channels (Homo sapiens, UniProt P13569). The settings on record: reported by Wang et al. (18); cited from earlier work.
Sequence of wild-type CFTR Cl- channels (P13569 whole entry): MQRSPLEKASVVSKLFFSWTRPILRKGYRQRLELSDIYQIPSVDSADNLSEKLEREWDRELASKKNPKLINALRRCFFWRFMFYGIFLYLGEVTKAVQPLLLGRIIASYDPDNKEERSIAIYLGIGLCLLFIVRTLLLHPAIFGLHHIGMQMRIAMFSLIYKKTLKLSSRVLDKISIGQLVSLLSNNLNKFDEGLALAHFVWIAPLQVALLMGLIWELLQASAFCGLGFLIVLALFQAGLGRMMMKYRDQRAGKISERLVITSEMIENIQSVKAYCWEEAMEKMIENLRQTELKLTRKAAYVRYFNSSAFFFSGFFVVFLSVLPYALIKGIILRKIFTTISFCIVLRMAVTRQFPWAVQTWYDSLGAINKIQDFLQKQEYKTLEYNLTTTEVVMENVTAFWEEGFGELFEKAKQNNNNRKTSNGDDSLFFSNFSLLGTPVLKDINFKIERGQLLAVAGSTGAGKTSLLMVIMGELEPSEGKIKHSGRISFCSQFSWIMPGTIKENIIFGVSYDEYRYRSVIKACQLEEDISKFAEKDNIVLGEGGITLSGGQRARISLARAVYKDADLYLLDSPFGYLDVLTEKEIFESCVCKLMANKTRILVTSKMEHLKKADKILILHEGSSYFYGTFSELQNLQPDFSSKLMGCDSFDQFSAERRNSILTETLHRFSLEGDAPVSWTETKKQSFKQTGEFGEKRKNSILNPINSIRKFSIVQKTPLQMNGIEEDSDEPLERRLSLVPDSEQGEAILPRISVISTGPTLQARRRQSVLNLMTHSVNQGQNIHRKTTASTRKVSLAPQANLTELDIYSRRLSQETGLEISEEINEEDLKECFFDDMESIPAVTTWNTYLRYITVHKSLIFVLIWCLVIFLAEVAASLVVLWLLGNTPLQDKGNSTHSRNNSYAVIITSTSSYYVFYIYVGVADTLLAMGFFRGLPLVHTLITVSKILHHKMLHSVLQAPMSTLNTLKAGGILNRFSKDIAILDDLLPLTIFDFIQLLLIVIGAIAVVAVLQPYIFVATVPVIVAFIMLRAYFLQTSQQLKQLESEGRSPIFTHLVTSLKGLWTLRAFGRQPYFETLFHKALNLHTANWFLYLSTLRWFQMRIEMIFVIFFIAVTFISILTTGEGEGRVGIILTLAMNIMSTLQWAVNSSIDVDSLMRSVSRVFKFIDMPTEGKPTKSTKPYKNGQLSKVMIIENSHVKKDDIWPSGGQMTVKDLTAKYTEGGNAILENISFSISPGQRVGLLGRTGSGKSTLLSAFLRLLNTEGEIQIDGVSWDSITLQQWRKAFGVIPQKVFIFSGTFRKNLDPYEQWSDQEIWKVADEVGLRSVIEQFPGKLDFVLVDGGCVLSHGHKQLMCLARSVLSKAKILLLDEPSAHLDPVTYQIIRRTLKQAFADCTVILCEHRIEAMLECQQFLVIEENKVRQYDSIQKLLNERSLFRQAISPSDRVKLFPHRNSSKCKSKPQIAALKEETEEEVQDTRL
The mark [5] stands for this setting: 1 μM, ATP 0.3 mM, PKA 75 nM, -50 mV.
Where [6] appears, read: eosin Y 100 μM, symmetrical 147 mM Cl-, ATP 1 mM.

Entries after “also recorded” stand apart in the source; their conditions may differ.

T1 sequence (P13569 whole entry): as above
T3 sequence (Q5U820 whole entry): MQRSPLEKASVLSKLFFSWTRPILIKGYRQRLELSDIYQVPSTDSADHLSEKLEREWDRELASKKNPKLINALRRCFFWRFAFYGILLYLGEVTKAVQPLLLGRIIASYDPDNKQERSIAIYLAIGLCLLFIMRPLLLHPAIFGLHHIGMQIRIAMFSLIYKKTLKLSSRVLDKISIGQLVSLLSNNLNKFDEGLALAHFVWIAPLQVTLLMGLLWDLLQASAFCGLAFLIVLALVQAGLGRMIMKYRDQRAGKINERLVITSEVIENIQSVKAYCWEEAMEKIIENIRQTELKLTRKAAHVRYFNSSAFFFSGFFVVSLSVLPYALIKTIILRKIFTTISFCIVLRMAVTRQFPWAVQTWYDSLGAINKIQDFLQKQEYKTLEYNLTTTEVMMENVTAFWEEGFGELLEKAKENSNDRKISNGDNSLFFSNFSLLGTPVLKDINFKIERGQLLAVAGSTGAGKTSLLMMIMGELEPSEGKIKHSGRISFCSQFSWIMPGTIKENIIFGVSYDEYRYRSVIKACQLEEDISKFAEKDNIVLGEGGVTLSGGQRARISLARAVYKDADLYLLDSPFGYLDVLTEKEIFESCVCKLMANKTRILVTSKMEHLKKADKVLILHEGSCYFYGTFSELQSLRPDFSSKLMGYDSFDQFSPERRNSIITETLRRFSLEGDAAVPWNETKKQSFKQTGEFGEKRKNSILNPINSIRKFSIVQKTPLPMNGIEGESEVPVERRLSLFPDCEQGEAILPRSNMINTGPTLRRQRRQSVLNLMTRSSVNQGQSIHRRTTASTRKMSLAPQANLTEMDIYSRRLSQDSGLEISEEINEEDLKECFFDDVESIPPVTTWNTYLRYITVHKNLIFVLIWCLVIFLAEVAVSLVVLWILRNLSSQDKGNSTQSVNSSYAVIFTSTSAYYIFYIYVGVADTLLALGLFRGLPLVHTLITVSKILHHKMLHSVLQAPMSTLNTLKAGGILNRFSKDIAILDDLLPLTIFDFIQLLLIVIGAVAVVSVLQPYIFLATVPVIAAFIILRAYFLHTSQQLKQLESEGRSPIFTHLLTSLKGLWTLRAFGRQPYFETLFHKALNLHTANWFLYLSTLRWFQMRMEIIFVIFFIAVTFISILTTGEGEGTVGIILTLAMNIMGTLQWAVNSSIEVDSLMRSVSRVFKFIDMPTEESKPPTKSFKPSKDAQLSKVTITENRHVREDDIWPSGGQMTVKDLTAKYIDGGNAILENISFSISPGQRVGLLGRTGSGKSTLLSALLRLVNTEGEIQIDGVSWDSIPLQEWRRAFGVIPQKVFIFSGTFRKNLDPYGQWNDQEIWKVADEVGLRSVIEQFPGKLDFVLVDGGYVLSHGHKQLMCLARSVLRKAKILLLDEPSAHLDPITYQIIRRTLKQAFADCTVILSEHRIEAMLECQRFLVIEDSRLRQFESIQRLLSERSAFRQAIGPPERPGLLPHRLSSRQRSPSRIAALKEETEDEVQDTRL

Compound `Nc1ncnc2c1ncn2[C@@H]1O[C@H](COP(=O)(O)OP(=O)(O)O)[C@@H](O)[C@H]1O` [ADP, reference compound] gave a Po on wild-type human CFTR [1] (ADP 0.3 mM alone, ATP 0.3 mM, PKA 75 nM) of 0.21±0.02. The “Po as % of the control value” on wild-type human CFTR [1] (ADP 0.3 mM, ATP 0.3 mM, PKA 75 nM) is given as 49±1%.
Consider `O=C1OC2(c3ccc(O)cc3Oc3cc(O)ccc32)c2c(Cl)c(Cl)c(Cl)c(Cl)c21` [tetrachlorofluorescein], for which, on wild-type human CFTR [2] (-50 mV), the “effect on CFTR Cl- currents (concentration-response, FIG. 3)” value (from here on “effect on CFTR Cl- currents”) was “only inhibited”.
On to `O=C1OC2(c3cc(I)c(O)c(I)c3Oc3c2cc(I)c(O)c3I)c2c(Cl)c(Cl)c(Cl)c(Cl)c21` [bengal rose B], for which the “open probability (Po)” value on wild-type human CFTR [1] (setting [5]) is given as 0.40±0.08. For the same compound, at wild-type human CFTR [2] (-50 mV), the “effect on CFTR Cl- currents” value is “stimulated and inhibited”. On wild-type human CFTR [2] (ATP 0.3 mM, PKA 75 nM, -50 mV), the “concentrations that stimulated CFTR Cl- currents” value is 0.1 to 1.0 µM. On wild-type human CFTR [2], the “concentration that maximally stimulated channel activity” value was 1 µM.
On to `O=C1OC2(c3ccccc31)c1cc(Br)c(O)c(Br)c1Oc1c2cc(Br)c(O)c1Br` [eosin Y], for which the “open probability (Po)” value on wild-type human CFTR [1] (setting [5]) is reported as 0.43±0.02. The “effect on CFTR Cl- currents” value at wild-type human CFTR [2] (-50 mV) is “stimulated and inhibited”. At wild-type human CFTR [2] (setting [6]), the “effect on channel activity at positive voltages” value was “channel activity is stimulated” and the “effect on channel activity at negative voltages” value was “inhibits channel activity”.
As to `O=C1OC2(c3ccc(O)cc3Oc3cc(O)ccc32)c2ccccc21` [fluorescein], the “effect on CFTR Cl- currents” value on wild-type human CFTR [2] (-50 mV) is listed as “only inhibited”.
One may read the Ki as a dissociation constant, usually derived from enzyme kinetics or from competition with a known ligand. A high value points to lower affinity. In the case of `O=C(O)c1c(Cl)c(Cl)c(Cl)c(Cl)c1-c1c2cc(Br)c(=O)c(Br)c-2oc2c(Br)c(O)c(Br)cc12` [phloxine B], at KATP currents, the “effect on KATP currents in pancreatic β-cells” value is given as “inhibits KATP currents”. For the same compound, in assay [3] (10 μM), the “effect on iodide efflux in the absence of cAMP agonists” value is on record as “without effect”. Besides, the “effect on cAMP-stimulated iodide efflux” value in assay [3] (10 μM with cAMP agonists) was “enhanced both the speed and magnitude”. Besides, at wild-type human CFTR [1] (setting [5]), the “open probability (Po)” value is listed as “large increase in Po” and the “single-channel current amplitude (i)” value is “small, but significant (P<0.05), reduction”. At wild-type human CFTR [1] (1 μM, single active channel), the interburst interval entry is listed as “no change; also recorded: without effect” and the mean burst duration entry is listed as “large increase in the duration of bursts; also recorded: significantly increased”. The “Po in the presence of ADP” value at wild-type human CFTR [1] (ADP 0.3 mM + phloxine B 1 μM, ATP 0.3 mM, PKA 75 nM) worked out at 0.43±0.05. At wild-type human CFTR [1] (in the presence of phloxine B 1 μM), the “maximum Po (Pomax), Michaelis-Menten fit” value was 0.72. Further, on ΔF508 CFTR, the “interburst interval of ΔF508” value is listed as “without altering” and the “mean burst duration of ΔF508 CFTR Cl channels” value is on record as “dramatically prolonging”. On ΔF508 CFTR (ATP 1.0 mM, PKA 75 nM), the “increase of the Po of ΔF508” value is listed as 1.5 fold. Further, at wild-type human CFTR [2], the affinity, expressed as Ki, was 17 µM; the “reversibility of modulation of CFTR” value was “partially reversible”; the “concentration that maximally stimulated channel activity” value came out at 5 µM. Also, at wild-type human CFTR [2] (-50 mV), the “effect on CFTR Cl- currents” value was “stimulated and inhibited”; the “n (Hill coefficient) of current inhibition” value is given as 2. Moreover, at wild-type human CFTR [2] (ATP 0.3 mM, PKA 75 nM, -50 mV), the “concentrations causing concentration-dependent decrease in CFTR Cl- current” value fell in the range of 20 to 50 µM and the “concentrations that stimulated CFTR Cl- currents” value lay within 1 to 5 µM. The “effect on the activity of CFTR Cl- channels” value at wild-type human CFTR [2] (added to intracellular solution in the absence of either ATP or PKA) was “without effect”. At wild-type human CFTR [2] (setting [6]), the “effect on channel activity at positive voltages” value was “relieve channel block by phloxine B (40 μM), but do not stimulate channel activity”.
For `O=c1c(-c2ccc(O)cc2)coc2cc(O)cc(O)c12` [genistein, 5,7-dihydrox-3-(4-hydroxyphenyl)-4H-1-benzopyran-4-one], the “concentration that maximally stimulated wild-type CFTR Cl- channels” value in assay [4] was 35 µM.
Usually EC50 stands for the concentration giving half of the maximal effect. Consider `Nc1ncnc2c1ncn2[C@@H]1O[C@H](COP(=O)(O)OP(=O)(O)OP(=O)(O)O)[C@@H](O)[C@H]1O` [ATP, reference compound], for which the EC50 on wild-type human CFTR [2] (PKA-phosphorylated channels, read-out: EC50 for activation of CFTR Cl- channels by intracellular ATP) was 300 µM.
